Assay results reported in patent publication US8946269B2, “Crystalline forms of a factor Xa inhibitor” (Portola Pharmaceuticals, Inc., priority 2010, dated 2015).

Columns and labels:
Assay type in all cases: physicochemical
pKa determination = settings: amidine
Procedure: This can be performed on a Sirius GlpKa instrument with a D-PAS attachment. Measurements can be made by UV in aqueous and by potentiometric in methanol and water mixtures at 25° C. The titration media is ionic strength adjusted with 0.15 M KCl. The values found in the methanol and water mixtures are corrected to 0% co-solvent via a Yasuda-Shedlovsky extrapolation. The data can be refined using Refinement Pro software version 1.0. Prediction of pKa values can be made using ACD pKa prediction software Ver. 8.08.

[1] = Solubility at 25° C. (slurried in solvent 24 hours, liquid quantified by HPLC)
Source text: Solids were checked by XRPD and the liquid was submitted for quantification by HPLC.

[2] = Physical and chemical stability on storage
Source text: FIG. 10 provides XRPD patterns from turnover experiments. A is an XRPD of Form II.

Row | Compound | pKa (pKa determination) | Solubility at 25° C. ([1]; MTBE) | time remaining physically and chemically stable ([2]; 25° C. and 60% RH) | time remaining physically and chemically stable ([2]; 40° C. and 75% RH) | Solubility at 25° C. ([1]; Acetone) | Solubility at 25° C. ([1]; Anhydrous ethanol (0.03% water)) | Solubility at 25° C. ([1]; DMF) | Solubility at 25° C. ([1]; IPA) | Solubility at 25° C. ([1]; MeOH, yellow solvate formed) | Solubility at 25° C. ([1]; in ethanol (summary table), listed as Betrixaban Maleate Form II) [mg/mL in ethanol]
1 | COc1ccc(NC(=O)c2ccc(C(=N)N(C)C)cc2)c(C(=O)Nc2ccc(Cl)cn2)c1 [Form I, reference compound] | 11.4 | 0.001 |  |  |  |  |  |  |  | 
2 | COc1ccc(NC(=O)c2ccc(C(=N)N(C)C)cc2)c(C(=O)Nc2ccc(Cl)cn2)c1 [Form II] |  | 0.01 | at least 6 months | at least 6 months | 0.99 | 4.8 | >246 | 0.63 | 37.9 (yellow | 4.8
